Among the data in US6566547B1, “Fungicides” (Zeneca Limited, priority 1984, dated 2003) are melting point values, retold here.

Counter-ions that a name gives are not always drawn.

One may read the melting point as the temperature, or range, at which the solid turns liquid. Compound `CO/C=C(/C(=O)OC)c1ccccc1` (as salt: sulphate) showed a melting point of 37 to 38 °C.
